From article PMC6634946 (The FEBS journal, 2019) come the findings set out here.

What all share (type): cell-based, human
For assay [1], the system named is U-2 OS cells. In words: Western blot analysis of p53, p21 expression. The conditions noted are these: 24 hours, (R)-5a effect at 5 and 10 μM.
The next assay concerns SJSA-1 cells. In words: Caspase 3/7 activity assay. The conditions noted are these: SJSA-1, 24 or 48 hours.
The subject of assay [2] is U-2 OS cells. As to the kind of experiment: Caspase 3/7 activity assay. Particulars: 24 or 48 hours.
For assay [3], the system named is U-2 OS cells. As to the kind of experiment: Real-time PCR of p53-target genes. Particulars: 6 hours, 10 μM (R)-5a, 5 μM RG7388, normalized to GAPDH.
In assay [4] the test system is U-2 OS cells. As to the kind of experiment: Cell cycle analysis. Particulars: 24 hours, 5 μM, control 55%.

The structures appear in SMILES notation.

Regarding `COc1ccc(C2=N[C@@H](c3ccc(Cl)cc3)[C@@H](c3ccc(Cl)cc3)N2C(=O)N2CCNC(=O)C2)c(OC(C)C)c1` [Nutlin-3], the “expression of p53 and p21 protein” value in the assay on U-2 OS cells [1] was “increased the expression of p21 and p53”.

For the compound `CN[C@@H]1C[C@H]2O[C@@](C)([C@@H]1OC)n1c3ccccc3c3c4c(c5c6ccccc6n2c5c31)C(=O)NC4` [Staurosporine], the “induction of apoptosis (caspase 3/7 activity)” value with SJSA-1 cells and in the assay with U-2 OS cells [2] was “induced apoptosis in both cell lines” each time.

As for `COc1cc(C(=O)O)ccc1NC(=O)[C@@H]1N[C@@H](CC(C)(C)C)[C@](C#N)(c2ccc(Cl)cc2F)[C@H]1c1cccc(Cl)c1F` [RG7388, Idasanutlin], the “expression of p53 and p21 protein” value in the assay on U-2 OS cells [1] is “increased the expression of p21 and p53”. The “MDM2 and CDKN1A transcripts” value in the assay with U-2 OS cells [3] is “significant increase of MDM2 and CDKN1A transcripts”. The “induction of apoptosis (caspase 3/7 activity)” value with SJSA-1 cells was “induced apoptosis only in SJSA-1 cells”; in the assay with U-2 OS cells [2], “not in U-2 OS cells”. Moreover, in the assay on U-2 OS cells [4], the “percentage of S-phase cells” value is on record as 0.5%.
